# In patent US20130005718A1 (priority 2009, published 2013):
# “And” between values parts separate entries of the source, which are not always exact repeats. Identical values can stand only once. “Also recorded” adds a separate entry of the source.
# Experiments:
# [1] = equivalent ionic conditions; cited from earlier work
# [2] = variously reported; cited from earlier work
# HCN1 channels = target: T1, HCN1 channels (Mus musculus, UniProt O88704); test: Two-electrode voltage clamp (TEVC) of HCN1 channel gating in Xenopus oocytes; assay type: cell-based, murine; conditions: for HCN isoform preference (words): HCN1 versus HCN2, 3 or 4
# T1 construct: expressed in transfected cells; host or cells: Xenopus oocytes (cRNA injection)
# [3] = Procedure: Serial dilutions were then dispersed into the aqueous recording solutions maintaining the DMSO concentration at 0.04% (W/V). […] To this end, appropriate masses of 2,6-DTBP and DHβCD that would yield 6 ml of 1% 2,6-DTBP, in combination with 40% DHβCD, were combined in a Teflon® capped borosilicate vial and heated to 60° C. in a water bath. This temperature is above the melting point of 2,6-DTBP (36° C. (Lorenc et al., 2003) but below that of DHβCD (>200° C. (Loftsson et al., 1996) and is compatible with stability of both reagents (Lorenc et al., 2003; Loftsson et al., 1996 and CAS documentation). After 15 minutes, the molten 2,6-DTBP was intimately mixed with the DHβCD by vigorous vortexing, 200 μl of 60° C. DI H2O added and, following additional vortexing, the vial returned to the water bath for 15-30 minutes. Following addition of 3 more 200 μl aliquots of deionized water (DI H2O), with corresponding incubation and vortexing, the sample was left at 60° C. overnight. The resulting colorless viscous gel was slowly diluted by addition of the required volume of DI H2O adding no more than 200 μl at a time with 15-30 minutes incubation at 60° C. and vortexing after each addition.
# The injection port and FID were at 280° C. while the column temperature was 210° C. The split ratio was 2:1 while the column flow was 6.96 ml/min with helium (linear velocity 65 cm/s).
# Samples and standards were prepared as follows. To 200 μl of whole blood (drawn following injection of DHβCD or 2,6-DTBP solubilized in DHβCD), 200 μl of chloroform containing 100 nM thymol (Sigma) as internal standard and 2 μl of DMSO were added. Following mixing (vortex for 20 seconds followed by 30 minutes on a rotator) and subsequent centrifugation (5000×g for 10 minutes at 10° C.), the chloroform phase was transferred into a glass gas chromatography vial and washed with an equal volume of 0.5 M NaOH. […] DHβCD was added to the DMSO-solubilized 2,6-DTBP sample and DMSO was added to the DHβCD-solubilized 2,6-DTBP sample so that the final concentrations of DHβCD and DMSO were equivalent. […]
# [4] = in vivo; cited from earlier work
# [5] = assay type: in vivo, mice
# Procedure: Samples and standards were prepared as follows.
# For the standard calibration curve, aliquots of 2,6-DTBP acutely solubilized in DMSO were added to 200 μl of chloroform plus the thymol internal standard (total DMSO addition was 2 μl in all cases). 200 μl of H2O were then added and the samples were processed as described above. In all cases, 2 μl of the chloroform phase was injected for analysis.
# (§1) To examine 2,6-DTBP bioavailability, 32 mice received dihydroxy-β-cyclodextrin (DHβCD) solubilized 2,6-DTBP (see below), DHβCD alone or saline by intraperitoneal (i.p.) injection with a dosing schedule as per behavioral testing (see below). 10-60 minutes after receipt of the appropriate final dose, mice were anesthetized with 2.5-3% isoflurane then exsanguinated by venous puncture. Blood concentration of 2,6-DTBP was determined by gas chromatography (see below). To consider toxicity of a high acute therapeutic dose of 2,6-DTBP, some animals received a single bolus of 80 mg/kg. To consider toxicity of an acute hyper-therapeutic dose of 2,6-DTBP, all animals that received three 40 mg/kg therapeutic doses during animal behavior experiments received a 120 mg/kg bolus immediately after the 180 minutes of behavioral testing window, thereby raising the cumulative dose to 240 mg/kg. The general condition of all of these animals was followed by qualitative observation of behavior (grooming and exploration) and survival. All animals were sacrificed within 7 days after receipt of a 2,6-DTBP/DHβCD injection.
# [6] = tested on: PNL-induced thermal hyperalgesia; test: Hind paw withdrawal latency (HPWL) to heat source after PNL; assay type: in vivo, C57 Black/6J mice; conditions: i.p., 15% heat stimulus
# mice [7] = test: Acute toxicity of 2,6-DTBP (behavior and survival); assay type: in vivo
# Procedure: as §1
# [8] = tested on: PNL-induced mechanical allodynia and hyperalgesia; test: Von Frey fiber test after partial sciatic nerve ligation (PNL); assay type: in vivo, C57 Black/6J mice
# mice [9] = conditions: i.v. 80-100 mg/kg; cited from earlier work
# [10] = listed as 2,6-di-tert-butylphenol
# T1 sequence (O88704 whole entry, canonical isoform): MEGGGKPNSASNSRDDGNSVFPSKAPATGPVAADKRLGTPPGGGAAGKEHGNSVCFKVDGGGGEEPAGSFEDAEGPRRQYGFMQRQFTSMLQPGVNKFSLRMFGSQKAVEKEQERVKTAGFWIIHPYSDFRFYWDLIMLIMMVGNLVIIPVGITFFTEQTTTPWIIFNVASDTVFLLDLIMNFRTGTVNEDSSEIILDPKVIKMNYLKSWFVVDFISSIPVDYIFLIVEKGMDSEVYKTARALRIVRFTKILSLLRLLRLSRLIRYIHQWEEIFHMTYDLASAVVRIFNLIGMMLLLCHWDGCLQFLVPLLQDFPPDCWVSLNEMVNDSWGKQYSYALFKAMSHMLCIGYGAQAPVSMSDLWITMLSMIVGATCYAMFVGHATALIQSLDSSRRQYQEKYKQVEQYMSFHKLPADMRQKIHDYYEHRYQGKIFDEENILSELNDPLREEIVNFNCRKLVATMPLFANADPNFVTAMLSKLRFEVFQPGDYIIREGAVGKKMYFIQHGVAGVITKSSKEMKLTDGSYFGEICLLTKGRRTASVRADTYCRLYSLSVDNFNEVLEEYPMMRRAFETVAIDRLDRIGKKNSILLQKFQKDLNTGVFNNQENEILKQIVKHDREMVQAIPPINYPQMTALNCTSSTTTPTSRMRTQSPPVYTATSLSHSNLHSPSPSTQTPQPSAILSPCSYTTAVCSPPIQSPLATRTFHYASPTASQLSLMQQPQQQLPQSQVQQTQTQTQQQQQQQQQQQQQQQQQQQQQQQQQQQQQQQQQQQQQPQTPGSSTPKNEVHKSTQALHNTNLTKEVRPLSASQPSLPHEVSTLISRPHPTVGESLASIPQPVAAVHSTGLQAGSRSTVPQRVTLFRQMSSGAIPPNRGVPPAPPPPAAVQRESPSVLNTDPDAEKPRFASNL
smiles,measurement,setting,value
CCCCC/C=C\C/C=C\C/C=C\C/C=C\CCCC(=O)O [arachidonic acid],critical micelle concentration,[1],about 100 μM
"CC(C)(C)c1cccc(C(C)(C)C)c1O [2,6-DTBP, 2,6-di-tert-butylphenol]",aqueous solubility limit,[2],20 to 200 µM
same,HCN1 antagonism,HCN1 channels,strongest potency and highest efficacy of the four derivatives
same,mean V1/2 of HCN1 activation,"HCN1 channels; 10 μM, n=6",−88.3 mV
same,mean slope of HCN1 activation,"HCN1 channels; 10 μM, n=6",9.6 mV
same,"V1/2 of HCN1 activation (Boltzmann fit, cell shown in FIG. 3A)","HCN1 channels; 10 μM, single cell",−90.8 mV
same,"slope of HCN1 activation (Boltzmann fit, cell shown in FIG. 3A)","HCN1 channels; 10 μM, single cell",9.7 mV
same,post incubation maximal current relative to pre incubation current,"HCN1 channels; 20 μM, n=6, difference to control not significant",108%
same,HCN1 ΔV1/2 after 20-minute incubation,"HCN1 channels; 20 μM, solubilized in DHβCD, n=6",−27.7 mV
same,HCN1 ΔV1/2 after 20-minute incubation,"HCN1 channels; 20 μM, solubilized in DMSO, n=6",−31.9 mV
same,EC50,"HCN1 channels; 20 min incubation, Xenopus oocytes, TEVC, read-out: EC50 for hyperpolarization of V1/2 of HCN1 gating (Hill fit)",2.3 µM and ~2.3 µM
same,HCN isoform preference (words),HCN1 channels,retains this selectivity profile; also recorded: retains a propofol-like selective efficacy against HCN1 channels
same,HCN isoform preference (words),HCN1 channels; [10],"preferentially inhibit HCN1 with little efficacy against HCN2, 3 or 4 channels"
same,apparent stoichiometry h (Hill coefficient),HCN1 channels; Hill fit of dose-response,1.4
same,maximal efficacy ΔV1/2 of HCN1 gating,HCN1 channels; Hill fit of dose-response,−32 mV
same,concentration solubilized in carrier solution,[3],1 % (W/V)
same,solubilization in intralipid emulsion,[3],unsuccessful
same,storage stability of the solution,[3],no phase separation or derivative precipitation
same,anesthetic activity,[4],total absence of anesthetic efficacy
same,whole blood concentration indicated from the chromatogram shown,[5]; 80 mg/kg i.p. in DHβCD,3.6 µM
same,total concentration in whole blood (mean),"[5]; 80 mg/kg i.p. in DHβCD, n=6",10.6 µM
same,estimated free serum concentration,[5]; analgesic dose of 40-120 mg/kg i.p.,0.2 to 0.6 µM
same,expected free concentration,[5]; from total blood concentration after 80 mg/kg i.p.,0.1 to 0.5 µM
same,"thermal hyperalgesia, ipsilateral HPWL (words)",[6],ameliorates the behavioral consequences of PNL-induced hyperalgesia; also recorded: selectively ameliorates PNL-induced thermal hyperalgesia
same,"thermal nociception, contralateral HPWL",[6],without significantly altering nociceptive behavior
same,"thermal hyperalgesia, ipsilateral HPWL (words)",[6]; [10],significantly relieve the neuropathic behavior
same,tolerability of single bolus dose,"mice [7]; 80 mg/kg i.p., four mice, seven day observation",all mice tolerated this dose well
same,tolerability of final bolus,"mice [7]; 120 mg/kg bolus after three 40 mg/kg doses, cumulative 240 mg/kg i.p.",not well tolerated
same,LD75,mice [7]; acute i.p. dose,~240 mg/kg
same,window in which remaining animals died,mice [7]; cumulative 240 mg/kg i.p.,14 to 18 h
same,therapeutic index,mice [7]; i.p.,3 to 5
same,mechanical hyperalgesia/allodynia in ipsilateral paw,"[8]; i.p. cumulative dosing, post-PNL mice",ameliorates the behavioral consequences of PNL-induced hyperalgesia; also recorded: selectively suppresses PNL-induced mechanical allodynia and hyperalgesia
same,"mechanical threshold, Logit transformation (allodynia, words)",[8]; threshold set at PW of 0.1,restore selectively the mechanical threshold to that observed in the uninjured paw
same,tolerability of acute intravenous exposure,mice [9],well tolerated
